Data as given in patent EP2698385A1, “Detection of synthetic cannabinoids” (priority 2012, dated 2014).

How the values were obtained:
[1] = test system: antiserum raised to Immunogen II (Hapten B-BTG); test: Competitive ELISA microtiter plate assay (Example 19), antiserum raised to Immunogen II, Hapten A-HRP conjugate as detection reagent; format: binding, sheep
Method: (§1) Aqueous solutions of the immunogens prepared in examples 5 and 13 were formulated with Freund's Complete Adjuvant (FCA) to form emulsions consisting of 2mg/ml Immunogen I and 2mg/ml of Immunogen II in 50%(v/v) FCA. Three sheep were immunised with each emulsion (1° immunisations), 0.25ml being intramuscularly injected at four sites in the rump of each animal. Subsequent immunisations (boosts 2-8) contained 1mg/ml Immunogen I and 1mg/ml Immunogen II. All boosts were emulsified in 50%(v/v) Freund's Incomplete Adjuvant (FIA) and administered to the appropriate sheep in the same manner as the 1° immunisations, at monthly intervals. Blood sampling took place 7-14 days after each boost. Each sample was processed to produce antiserum, which was further purified by caprylic acid and ammonium sulphate precipitation to yield an immunoglobulin (Ig) fraction. The Ig fraction was evaluated by competitive ELISA microtiter plate assay, as described in example 19 below.
(§2) Example 19: Development of competitive ELISA for JWH synthetic cannabinoids and metabolites. • (a) The wells of an enhanced binding 96 well polystyrene microtiter plate were coated with the Ig fraction of the antiserum raised to Immunogen I (Hapten A-BTG - example 5) and diluted in 10mM Tris, pH8.5 (125µl/well). The appropriate antibody coating concentration was determined using standard ELISA checkerboard techniques. The plate was incubated for 2 hours at 37°C, washed 4 times over a 10-minute period with Tris buffered saline containing Tween 20 (TBST) and tapped dry. Standard solutions of JWH synthetic cannabinoids, metabolites and selected molecules were prepared in TBST and 50µl of each was added to the appropriate wells. 75µl of conjugate (Hapten A-HRP) diluted in Tris buffer containing EDTA, D-mannitol, sucrose, thimerosal and BSA, was added to each of the wells. The appropriate dilution of conjugate was also determined using standard ELISA checkerboard techniques. The plate was incubated at 25°C for 1 hour. The excess unbound conjugate was removed by washing 6 times over a 10-minute period with TBST and tapped dry. 125µl of tetramethylbenzedine (TMB) substrate solution was added to each well of the plate that was then incubated for 15-20 minutes in the dark at room temperature. The reaction was terminated by addition of 125µl of 0.2M sulphuric acid to each well. The absorbance was then measured at 450nm using a microtiter plate reader. Employing each series of standards, calibration curves were generated and these were used to determine the specificity of the immunoassay for the JWH synthetic cannabinoids, metabolites and selected molecules. The results of this study are presented in Tables 1 to 3, cross-reactivity being calculated according to the following formula: %CR = […] /IC50,CR X 100 [formula] Where %CR is the percentage cross-reactivity, IC50, YWH-018 is the concentration of JWH-018 that causes 50% displacement of signal and IC50, CR is the concentration of JWH synthetic cannabinoid/metabolite/selected molecule that causes 50% displacement of signal.
Table 1: Data generated from a competitive microtiter plate assay for JWH synthetic cannabinoids and metabolites, employing antiserum raised to Immunogen II (Hapten B-BTG) and conjugate (Hapten A-HRP) as detection reagent. (b) In a similar manner to that described in Example 19(a), the wells of a 96 well microtiter plate were coated with the Ig fraction of the antiserum raised to Immunogen II ([…]). Conjugate (Hapten A-HRP) was employed as a detection reagent.

[2] = test system: antiserum raised to Immunogen I (Hapten A-BTG); test: Competitive ELISA microtiter plate assay (Example 19), antiserum raised to Immunogen I, Hapten A-HRP conjugate as detection reagent; format: binding, sheep; details: for binding to the antibody produced from Immunogen I: result in words
Method: as §1, §2
Table 1: Data generated from a competitive microtiter plate assay for JWH synthetic cannabinoids and metabolites, employing antiserum raised to Immunogen II (Hapten B-BTG) and conjugate (Hapten A-HRP) as detection reagent. (b) In a similar manner to that described in Example 19(a), the wells of a 96 well microtiter plate were coated with the Ig fraction of the antiserum raised to Immunogen II ([…]). Conjugate (Hapten A-HRP) was employed as a detection reagent. […]

[3] = Table 1, 40 ng/ml highest concentration tested
[4] = Table 1, CR based on 100% for JWH-018
[5] = Table 2, 40 ng/ml highest concentration tested
[6] = Table 2, CR based on 100% for JWH-018

Structure (SMILES) | IC50 ng/ml [1, 3] | % Cross-reactivity [1, 4] | IC50 [2, 5] [ng/mL] | % Cross-reactivity [2, 6] | IC50 [1, 3] [ng/mL] | binding to the antibody produced from Immunogen I [2] | IC50 ([1]; first Table 4, Immunogen II) [ng/mL] | % Cross-reactivity ([1]; first Table 4, Immunogen II, JWH-018 = 100) [%] | IC50 ([2]; first Table 4, Immunogen I) [ng/mL] | % Cross-reactivity ([2]; first Table 4, Immunogen I, JWH-018 = 100) [%] | IC50 ng/ml [2, 5]
O=C(c1cccc2ccccc12)c1c[nH]c2ccccc12 [3-(1-naphthoyl)-1H-Indole, 3-(1-naphthoyl)-1H-indole] | >> 40 ng/ml | << 5.28% | 3.84 | 70.57% |  |  |  |  |  |  | 
CCCCCn1cc(C(=O)c2cccc3ccccc23)c2c(O)cccc21 [JWH-018 4-hydroxyindole metabolite] |  | 23.03% | 25.51 | 10.62% | 9.16 |  |  |  |  |  | 
CCCCCn1cc(C(=O)c2cccc3ccccc23)c2cc(O)ccc21 [JWH-018 5-hydroxyindole metabolite] |  | 130.25% | 0.39 | 694.87% | 1.62 | able to bind |  |  |  |  | 
CCCCCn1cc(C(=O)c2cccc3ccccc23)c2ccc(O)cc21 [JWH-018 6-hydroxyindole metabolite] |  | 215.31% | 2.04 | 132.84% | 0.98 | able to bind |  |  |  |  | 
O=C(c1cccc2ccccc12)c1cn(CCCCCO)c2ccccc12 [JWH-018 N-(5-hydroxypentyl) metabolite] |  | 183.48% | 0.18 | 1505.56% | 1.15 |  |  |  |  |  | 
O=C(O)CCCCn1cc(C(=O)c2cccc3ccccc23)c2ccccc21 [JWH-018 N-pentanoic acid metabolite] |  | 38.50% | 0.42 | 645.24% | 5.48 |  |  |  |  |  | 
CCCCCn1cc(C(=O)c2cccc3ccccc23)c2ccccc21 [JWH-018] |  | 100.00% | 2.71 | 100.00% | 2.11 | able to bind | 1.97 | 100.00 | 2.30 | 100.00 | 
CCCCn1cc(C(=O)c2cccc3ccccc23)c2ccccc21 [JWH-073] |  | 135.26% | 0.93 | 291.40% | 1.56 |  |  |  |  |  | 
CCCCCn1cc(C(=O)c2ccc(Cl)c3ccccc23)c2ccccc21 [JWH-398] |  | 12.02% |  | << 6.78% | 17.55 |  |  |  |  |  | >> 40 ng/ml
O=C(c1cccc2ccccc12)c1cn(CCN2CCOCC2)c2ccccc12 [WIN 55,225 (other name JWH-200), JWH-200] |  | 127.11% | 0.31 | 874.19% | 1.66 |  |  |  |  |  | 
